Consider six compounds from patent US12622894B2, “Pharmaceutical compositions and intravitreal drug delivery systems for the treatment of ocular diseases” (Perfuse Therapeutics, Inc., priority 2021, dated 2026).

Structures are written as SMILES.

The conditions of data set [1]: cited from earlier work.
Data set [2] in a line: Slurry conversion of crystalline forms in isopropanol and water, XRPD analysis. It is filed as physicochemical. On the procedure:
In an alternate method, 150 mg of Edonentan (Form 3) was added to a mixture of isopropanol and water (1 mL and 2 mL, respectively). The resulting slurry was stirred at 15° C. for 48 hours and then filtered.
In an alternate method, 200 mg of Edonentan (Form 1) was added to a mixture of isopropanol and water (1.3 mL and 2.6 mL, respectively). The resulting solution was heated to 80° C. and stirred for 24 h, then cooled and filtered.

Data set [3] can be described thus: In vitro melanin binding assay with synthetic melanin. Particulars: 200 μM; melanin 1 mg/mL.
Description: A concentration of 200 μM chloroquine was used as a positive control.
The conditions of data set [4]: pH 7.4 in 2 mg/mL melanin solution; cited from earlier work.

Consider `Cc1onc(NS(=O)(=O)c2ccccc2-c2ccc(-c3ncco3)cc2CN(C)C(=O)CC(C)(C)C)c1C` [Edonentan, N-[[2′-[[(4,5-dimethyl-3-isoxazolyl)amino]sulfonyl]-4-(2-oxazolyl)[1,1′-biphenyl]-2-yl]methyl]-N,3,3-trimethylbutanamide], for which the “oral Tmax” value in data set [1] was 24 min.

On to `Cc1onc(NS(=O)(=O)c2ccccc2-c2ccc(-c3ncco3)cc2CN(C)C(=O)CC(C)(C)C)c1C` [Form 1], for which the “Solubility pH 7.0 Phosphate Buffer” value is listed as 264 μg/mL.

Consider `Cc1onc(NS(=O)(=O)c2ccccc2-c2ccc(-c3ncco3)cc2CN(C)C(=O)CC(C)(C)C)c1C` [Form 2], for which the “Solubility pH 7.0 Phosphate Buffer” value is given as 35 μg/mL.

`Cc1onc(NS(=O)(=O)c2ccccc2-c2ccc(-c3ncco3)cc2CN(C)C(=O)CC(C)(C)C)c1C` [Form 3]: the “Solubility pH 7.0 Phosphate Buffer” value is recorded as 251 μg/mL.

For `Cc1onc(NS(=O)(=O)c2ccccc2-c2ccc(-c3ncco3)cc2CN(C)C(=O)CC(C)(C)C)c1C` [Form 4], the “relative thermodynamic stability of crystalline forms” value in data set [2] (Form 1 in isopropanol and water, 80° C., 24 h) was “more thermodynamically stable than Form 1”; in data set [2] (slurry of Form 3 in isopropanol and water, 15° C., 48 hours), “more thermodynamically stable than Form 3”.

In the case of `CCN(CC)CCCC(C)Nc1ccnc2cc(Cl)ccc12` (centres unmarked) [chloroquine], the “binding to melanin (% bound)” value in data set [3] turned out to be 99.5 % bound. In data set [4], the “bound to melanin, literature values” is reported as 92-99.6 % bound.
